Columns and labels:
BALB/c mice = assay: VPA effect on Ad-CMV-Luc gene expression in vivo; conditions: Ad-CMV-Luc intramuscular, VPA six days, biophotonic imaging
Description: In FIG. 6A luciferase-encoding adenovirus vector (Ad.CMV-Luc) was inoculated into the thigh muscle of BALB/c mice. These animals (3/group) were then treated with either VPA or with vehicle alone for six days, by twice-daily i.p. injection. Representative images obtained with the IVIS CCD camera at day 2 and 6 post Ad-infection are presented. In FIG. 6B the levels of adenovirally vectored luciferase gene expression in the mice shown in panel A were quantitated at day 2 and 6 post infection using the Living Image® 2.20.1 software (Xenogen, Alameda, Calif.).
[…] of a luciferase-expressing adenovirus vector (Ad-CMV-Luc) was inoculated into BALB/c mice, via an intramuscular route. These animals were then treated with either VPA or with vehicle alone for six days, and the expression of luciferase was analyzed over time using biophotonic imaging.

N2A neuroblastoma cells = assay: VPA effect on Ad.CMV-LacZ gene expression in vitro; assay type: cell-based
Description: FIG. 5A is a graph showing N2A cells transduced by Ad.CMV-LacZ, and then exposed to varying concentrations of VPA (as indicated). Twenty-four hours later, LacZ expression was analyzed. FIG. 5B is a graph showing N2A cells cultured on poly-D-lysine coated 12-well plates in NB/B27 medium, and transduced with Ad.CMV-LacZ at a multiplicity of infection (MOI) of 10. Two hours thereafter, the culture medium was replaced with medium containing 1 mM VPA or vehicle (control). The medium was changed every 24-hours thereafter, and cell aliquots were harvested at the indicated time points (1, 3, 5, 7, 10 and 12 days post infection). LacZ expression was then measured in the lysates.
VPA enhanced virally-vectored gene expression, using a panel of gene delivery platforms that include recombinant, replication-defective type 5 adenovirus vectors. […] Similar effects were also observed in several primary cells transduced by Ad-CMV-LacZ (Fan, et al., J. Virol. Methods 125:23-33 (2005)).

human lung fibroblasts = assay: HIV-1 RT based cellular dNTP assay; assay type: cell-based
Source text: A ^32P labeled 18-mer annealed to a 19-mer template was extended by HIV-1 RT with known amounts of TTP. Percent of the primer extension with each dNTP amount was plotted (B).
A highly sensitive dNTP assay capable of monitoring dNTP levels in primary cells has been described (Diamond et al., J. Biol. Chem. 279:51545-53 2004). It has been difficult to determine dNTP levels in terminally differentiated primary cells due to the lack of highly sensitive dNTP assays. […] This assay used a ^32P-labeled 18-mer primer annealed to a 19-mer template, allowing incorporation of one of four dNTPs, generating 19-mer products (FIG. 2A). Indeed, this assay is ˜250 times more sensitive than the HPLC based assay. With this assay, dNTP concentrations in primary human macrophages, CD4+ T cells, and human fibroblasts were determined (Table 3). This assay also allowed monitoring of fluctuations of cellular dNTP contents, in different cell types, or under different phases of the cell cycle or culture conditions. Primary cells such as human primary lung fibroblast cells (HFL culture with 10% serum) have 5-10 lower dNTP content than tumor cells such as PANC1 cells (Table 4). Treatment with deoxynucleoside (dNs) enhanced cellular dNTP content in human lung fibroblasts (cultured with 10% serum) by 80 fold (Table 4).

Row | Molecule | expression of luciferase compared to untreated mice (BALB/c mice) | reporter gene (LacZ) expression (N2A neuroblastoma cells; Ad-CMV-LacZ transduced N2A cells, varying VPA, FIG. 5A) | duration of increased expression of the delivered gene post VPA-treatment (N2A neuroblastoma cells; VPA 1 mM, FIG. 5B) | enhancement of cellular dNTP content (human lung fibroblasts; human lung fibroblasts cultured with 10% serum) [fold] | [dNTP] (human lung fibroblasts; lung fibroblasts (+dN)) | [dNTP] relative to untreated lung fibroblasts (1x) (human lung fibroblasts; lung fibroblasts (+dN)) [x]
1 | CCCC(CCC)C(=O)O [VPA, Valproic acid] | increased expression of luciferase | dose-dependent increase | more than 12 days |  |  | 
2 | deoxynucleosides [dNs] |  |  |  | 80 | 20~90 μM | ~80
